In patent US11352322B2, “Cyclopropyl-amide compounds as dual LSD1/HDAC inhibitors” (Jubilant Epicore LLC, priority 2016, dated 2022):
Structures can show the parent of a compound that is named as a salt. Where two headings read alike, the source gives them in different places.

Assays:
[1] = Metabolic stability in liver microsomes, HLM; conditions: 1 μM, NADPH
Description: (§1) The microsomal suspension was prepared by adding liver microsomes to 100 mM potassium phosphate buffer (pH7.4) to give a final protein concentration of 0.5 mg/mL. The stock solution of NCE (10 mM in DMSO) was added to the microsomes to provide a final concentration of 1 μM. […] Samples were vortexed and centrifuged at 5,000 rpm for 10 min to remove proteins. Supernatant were analyzed on LC-MS/MS.

[2] = Metabolic stability in liver microsomes, MLM; conditions: 1 μM, NADPH
Description: as §1

[3] = molecular target: HDAC6 human recombinant enzyme (Homo sapiens (Human), UniProt Q9UBN7); test: Histone Deacetylase Assay (BPS Biosciences), HDAC6; format: biochemical
Chain of HDAC6 human recombinant enzyme (Q9UBN7 whole entry): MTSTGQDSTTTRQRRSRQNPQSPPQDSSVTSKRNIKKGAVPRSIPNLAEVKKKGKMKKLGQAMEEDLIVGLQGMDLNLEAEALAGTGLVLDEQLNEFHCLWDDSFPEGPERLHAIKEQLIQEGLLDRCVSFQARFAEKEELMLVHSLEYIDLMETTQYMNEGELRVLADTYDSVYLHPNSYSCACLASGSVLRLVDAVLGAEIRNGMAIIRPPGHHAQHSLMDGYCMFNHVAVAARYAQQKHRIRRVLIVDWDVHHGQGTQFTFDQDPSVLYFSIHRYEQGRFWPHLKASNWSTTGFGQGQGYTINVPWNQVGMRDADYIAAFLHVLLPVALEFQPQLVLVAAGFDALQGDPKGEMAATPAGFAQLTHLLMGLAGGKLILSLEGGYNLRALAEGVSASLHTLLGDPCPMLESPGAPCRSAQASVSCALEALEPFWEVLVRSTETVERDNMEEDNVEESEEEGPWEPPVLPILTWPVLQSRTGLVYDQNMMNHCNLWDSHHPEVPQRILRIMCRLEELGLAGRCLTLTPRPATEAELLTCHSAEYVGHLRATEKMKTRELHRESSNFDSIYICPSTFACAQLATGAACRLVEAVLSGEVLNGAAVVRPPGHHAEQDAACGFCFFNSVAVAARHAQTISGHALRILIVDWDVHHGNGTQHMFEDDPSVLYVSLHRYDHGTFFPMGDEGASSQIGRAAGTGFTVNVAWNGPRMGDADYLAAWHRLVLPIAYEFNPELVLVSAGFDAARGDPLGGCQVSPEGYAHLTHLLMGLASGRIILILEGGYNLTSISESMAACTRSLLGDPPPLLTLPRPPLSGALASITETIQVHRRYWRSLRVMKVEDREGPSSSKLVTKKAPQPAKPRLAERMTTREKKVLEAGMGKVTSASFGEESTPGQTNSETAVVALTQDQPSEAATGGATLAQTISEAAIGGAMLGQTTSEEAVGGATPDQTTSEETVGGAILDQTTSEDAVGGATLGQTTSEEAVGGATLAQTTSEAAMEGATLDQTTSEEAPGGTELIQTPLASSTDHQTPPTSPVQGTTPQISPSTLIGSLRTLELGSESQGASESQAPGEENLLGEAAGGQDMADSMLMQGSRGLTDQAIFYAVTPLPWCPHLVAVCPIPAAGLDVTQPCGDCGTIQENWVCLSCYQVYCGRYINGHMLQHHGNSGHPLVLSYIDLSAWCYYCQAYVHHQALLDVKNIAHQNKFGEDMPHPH
From the text: Histone Deacetylase Assay (BPS Biosciences)
Histone deacetylase assay was done as per manufacturer's instructions.

MM1S = test: Anticancer activity: Alamar Blue assay, MM1S; format: cell-based; conditions: Homo sapiens, MM1.S, read-out: MM1S EC50
LSD1 = LSD1 (Homo sapiens (Human), UniProt O60341); test: TR-FRET Assay for LSD1; conditions: read-out: LSD1 IC50
Description: TR-FRET Assay for LSD1 (Perkin Elmer)
Tranylcypromine (TCP), LSD1 inhibitor was procured from Selleckchem. […] Stop Solution containing 300 μM tranylcypromine in 1× LANCE Detection Buffer was added to the wells and incubated for 5 min at RT. Then, Detection mix containing 2 nM Eu-Ab and 50 nM ULight-Streptavidin in 1× LANCE Detection Buffer was prepared and added to the reaction mix. This mixture was incubated for 1 hour at room temperature.

Row | IC50 (LSD1) [nM] | EC50 (MM1S; MM1S cells) [nM] | Compound | Metabolic stability HLM % remaining in 30 min [1] [%] | Metabolic stability MLM % remaining in 30 min [2] [%] | IC50 [3] [nM] | EC50 (MM1S) [nM]
1 | – | – | O=C(NO)c1cnc(N2CCC(CN[C@@H]3C[C@H]3c3ccc(F)cc3)CC2)nc1 [Example 20, 2-(4-((((1R,2S)-2-(4-fluorophenyl)cyclopropyl)amino)methyl)piperidin-1-yl)-N-hydroxypyrimidine-5-carboxamide TFA Salt] | 91 | 69 | 72 | 3
2 | – | – | O=C(NO)c1cnc(N2CCC(CN[C@H]3C[C@@H]3c3ccc(F)cc3)CC2)nc1 [Example 21, 2-(4-((((1S,2R)-2-(4-fluorophenyl)cyclopropyl)amino)methyl)piperidin-1-yl)-N-hydroxypyrimidine-5-carboxamide TFA Salt] | 86 | 51 | 91 | 9
3 | 465 | 48 | CN(CC1CCN(CCCc2ccc(C(=O)NO)cc2)CC1)C1CC1c1ccccc1 (stereo not shown) [Example 45, N-hydroxy-4-(3-(4-((methyl (2-phenylcyclopropyl)amino)methyl)piperidin-1-yl)propyl) benzamide TFA Salt] | – | – | – | –
4 | – | – | O=C(NO)c1ccc(CC(=O)N2CCC(CNC3CC3c3ccccc3)CC2)cc1 (stereo not shown) [Example 84, N-hydroxy-4-(2-oxo-2-(4-(((2-phenylcyclopropyl)amino)methyl)piperidin-1-yl)ethyl)benzamide TFA Salt] | 78 | 40 | 45 | 112
5 | – | – | O=C(NO)c1ccc(CC(=O)N2CCC(CN[C@@H]3C[C@H]3c3ccccc3)CC2)cc1 [Example 84A, N-hydroxy-4-(2-oxo-2-(4-((((1R,2S)-2-phenylcyclopropyl)amino)methyl)piperidin-1-yl)ethyl)benzamide TFA Salt] | 78 | 41 | 22 | 26
6 | – | – | O=C(NO)c1ccc(CC(=O)N2CCC(CN[C@H]3C[C@@H]3c3ccccc3)CC2)cc1 [Example 84B, N-hydroxy-4-(2-oxo-2-(4-((((1S,2R)-2-phenylcyclopropyl)amino)methyl)piperidin-1-yl)ethyl)benzamide TFA Salt] | 75 | 45 | 25 | 259
7 | – | – | O=C(NO)c1cc2c(s1)CCN(C(=O)CNC1CC1c1ccc(F)cc1)C2 (stereo not shown) [Example 103, 5-(2-((2-(4-fluorophenyl)cyclopropyl)amino)acetyl)-N-hydroxy-4,5,6,7-tetrahydrothieno [3,2-c]pyridine-2-carboxamide TFA Salt] | 85 | 53 | 41 | 45
8 | – | – | O=C(NO)c1cc2c(s1)CCN(C(=O)CN[C@@H]1C[C@H]1c1ccc(F)cc1)C2 [Example 103A, 5-(2-(((1R,2S)-2-(4-fluorophenyl)cyclopropyl)amino)acetyl)-N-hydroxy-4,5,6,7-tetrahydrothieno[3,2-c]pyridine-2-carboxamide TFA Salt] | 87 | 68 | 22 | 52
9 | – | – | O=C(NO)c1cc2c(s1)CCN(C(=O)CN[C@H]1C[C@@H]1c1ccc(F)cc1)C2 [Example 103B, 5-(2-(((1S,2R)-2-(4-fluorophenyl)cyclopropyl)amino)acetyl)-N-hydroxy-4,5,6,7-tetrahydrothieno[3,2-c]pyridine-2-carboxamide TFA Salt] | 76 | 73 | 36 | 15
10 | – | – | O=C(NO)c1ccc2c(c1)CN(C(=O)CNC1CC1c1ccc(F)cc1)CC2 (stereo not shown) [Example 104, 2-(2-((2-(4-fluorophenyl)cyclopropyl)amino)acetyl)-N-hydroxy-1,2,3,4-tetrahydroisoquinoline-7-carboxamide TFA Salt] | 80 | 77 | 32 | 269
11 | – | – | O=C(NO)c1ccc2c(c1)CN(C(=O)CN[C@H]1C[C@@H]1c1ccc(F)cc1)CC2 [Example 104A, 2-(2-(((1S,2R)-2-(4-fluorophenyl)cyclopropyl)amino)acetyl)-N-hydroxy-1,2,3,4-tetrahydroisoquinoline-7-carboxamide TFA Salt] | 74 | 68 | 53 | 183
12 | – | – | O=C(NO)c1ccc2c(c1)CN(C(=O)CN[C@@H]1C[C@H]1c1ccc(F)cc1)CC2 [Example 104B, 2-(2-(((1R,2S)-2-(4-fluorophenyl)cyclopropyl)amino)acetyl)-N-hydroxy-1,2,3,4-tetrahydroisoquinoline-7-carboxamide TFA Salt] | 74 | 70 | 45 | 374
13 | – | – | O=C(NO)c1cc2c(s1)CCN(C(=O)CCCNC1CC1c1ccc(F)cc1)C2 (stereo not shown) [Example 105, 5-(4-((2-(4-fluorophenyl)cyclopropyl)amino)butanoyl)-N-hydroxy-4,5,6,7-tetrahydrothieno[3,2-c]pyridine-2-carboxamide TFA Salt] | 77 | 72 | 18 | 13
14 | – | – | O=C(NO)c1ccc2c(c1)CN(C(=O)CCCNC1CC1c1ccc(F)cc1)CC2 (stereo not shown) [Example 107, 2-(4-((2-(4-fluorophenyl)cyclopropyl)amino)butanoyl)-N-hydroxy-1,2,3,4-tetrahydroisoquinoline-7-carboxamide TFA Salt] | 83 | 67 | 85 | 78
15 | – | – | O=C(NO)c1ccc(/C=C/C(=O)N2CCC(CNC3CC3c3ccccc3)CC2)cc1 (stereo not shown) [Example 114, (E)-N-hydroxy-4-(3-oxo-3-(4-(((2-phenylcyclopropyl)amino)methyl)piperidin-1-yl)prop-1-en-1-yl)benzamide TFA Salt] | 83 | 56 | 68 | 44
16 | – | – | O=C(NO)c1ccc(/C=C/C(=O)N2CCC(CN[C@@H]3C[C@H]3c3ccccc3)CC2)cc1 [Example 114A, N-hydroxy-4-((E)-3-oxo-3-(4-((((1R,2S)-2-phenylcyclopropyl)amino)methyl)piperidin-1-yl)prop-1-en-1-yl)benzamide TFA Salt] | 67 | 62 | 38 | 14
17 | – | – | O=C(NO)c1ccc(/C=C/C(=O)N2CCC(CN[C@H]3C[C@@H]3c3ccccc3)CC2)cc1 [Example 114B, N-hydroxy-4-((E)-3-oxo-3-(4-((((1S,2R)-2-phenylcyclopropyl)amino)methyl)piperidin-1-yl)prop-1-en-1-yl)benzamide TFA Salt] | 73 | 43 | 33 | 97
18 | – | – | Nc1ccccc1NC(=O)c1ccc(CCCn2cnc(CNC3CC3c3ccc(F)c(F)c3)c2)cc1 (stereo not shown) [Example 135, N-(2-aminophenyl)-4-(3-(4-(((2-(3,4-difluorophenyl)cyclopropyl)amino)methyl)-1H-imidazol-1-yl)propyl)benzamide TFA Salt] | 2 | 8 | > 10000 | 247
19 | – | – | Nc1ccccc1NC(=O)c1ccc(CCN2CCC(CNC3CC3c3ccccc3)CC2)cc1 (stereo not shown) [Example 139, N-(2-aminophenyl)-4-(2-(4-(((2-phenylcyclopropyl)amino)methyl)piperidin-1-yl)ethyl)benzamide TFA Salt] | – | – | > 10000 | –
20 | – | – | Nc1ccccc1NC(=O)c1cc2c(s1)CCN(C(=O)CNC1CC1c1ccc(F)cc1)C2 (stereo not shown) [Example 151, N-(2-aminophenyl)-5-((2-(4-fluorophenyl)cyclopropyl)glycyl)-4,5,6,7-tetrahydrothieno[3,2-c]pyridine-2-carboxamide TFA Salt] | 30 | 18 | > 10000 | 345
21 | – | – | Nc1ccccc1NC(=O)c1ccc2c(c1)CN(C(=O)CNC1CC1c1ccc(F)cc1)CC2 (stereo not shown) [Example 152, N-(2-aminophenyl)-2-(2-((2-(4-fluorophenyl)cyclopropyl)amino)acetyl)-1,2,3,4-tetrahydroisoquinoline-7-carboxamide TFA Salt] | 36 | 31 | > 10000 | 566
22 | – | – | Nc1ccccc1NC(=O)c1cnc(CCCN2CCC(CNC3CC3c3ccccc3)CC2)s1 (stereo not shown) [Example 154, N-(2-aminophenyl)-2-(3-(4-(((2-phenylcyclopropyl)amino)methyl)piperidin-1-yl)propyl)thiazole-5-carboxamide TFA Salt] | – | – | > 10000 | –
23 | – | – | Nc1ccccc1NC(=O)c1ccc(CNC(=O)CNC2CC2c2ccc(F)cc2)cc1 (stereo not shown) [Example 155, N-(2-aminophenyl)-4-((2-((2-(4-fluorophenyl)cyclopropyl)amino)acetamido)methyl)benzamide TFA Salt] | 46 | 34 | > 10000 | 42
24 | – | – | Nc1ccccc1NC(=O)c1ccc(CNC(=O)N2CCC(CNC3CC3c3ccc(F)cc3)CC2)cc1 (stereo not shown) [Example 158, N-(4-((2-aminophenyl)carbamoyl)benzyl)-4-(((2-(4-fluorophenyl)cyclopropyl)amino)methyl)piperidine-1-carboxamide TFA Salt] | 50 | < 5 | > 10000 | 58
